In US20210195900A1, “FUNGICIDAL MIXTURES FOR SOYBEAN DISEASES” (priority 2018, published 2021):

Legend:
soybeans = assay: Soybean seed treatment field trial, grain yield (multi-year, multi-location); assay type: in vivo; conditions: control 60.4
Procedure: (§1) Soybean seeds treated with penthiopyrad, fluopyram, a combination thereof, at indicated application rates, along with appropriate controls were grown in multiple field locations under a variety of pest pressures including sudden death syndrome (SDS).
(§2) For those evaluations shown herein, the Treatment value is greater than or less than CONTROL, and statistically significant at (P-value <0.10).

[1] = tested on: Fusarium virguliforme (SDS); assay: Soybean seed treatment field trial, SDS score at stage R6; assay type: in vivo; conditions: 9 = no disease, control 6.1
Procedure: as §1
Level of tolerance to Fusarium virguliforme (SDS) in soybean varieties based on SDS score was measured in multiple locations across multiple years. SDS score was determined at or during the soybean developmental stage R6.
Scale for assigning tolerance to SDS scores:
Scale 9=clean, no disease
Scale 8=Up to 10% of plants showing mild symptoms (yellow, chlorotic spots)
Scale 7=Up to 20% plants showing mild symptoms
Scale 6=up to 30% plants showing medium symptoms (necrotic spots develop in the chlorotic areas; considered the lowest ‘acceptable’ score)
Scale 5=40% or more of plants showing medium symptoms
Scale 4=50% or more plants showing medium to heavy symptoms
3, 2, or 1=1/3, 2/3, or complete leaf drop, respectively.
as §2

SMILES	Multi-year, Multi-loc Yield (soybeans; fluopyram 0.075 mg ai/seed)	Multi-year, Multi-loc Yield (soybeans; fluopyram 0.15 mg ai/seed)	SDS Score (1-9) ([1]; fluopyram 0.075 mg ai/seed)	SDS Score (1-9) ([1]; fluopyram 0.15 mg ai/seed)	Multi-year, Multi-loc Yield (soybeans; penthiopyrad 0.25 mg ai/seed)	SDS Score (1-9) ([1]; penthiopyrad 0.25 mg ai/seed)
O=C(NCCc1ncc(C(F)(F)F)cc1Cl)c1ccccc1C(F)(F)F [Fluopyram, N-{2-[3-Chloro-5-(trifluoromethyl)-2-pyridinyl]ethyl}-2-(trifluoromethyl)benzamide]	62.2 bu/acre	62.5 bu/acre	6.8	7.2	–	–
CC(C)CC(C)c1sccc1NC(=O)c1cn(C)nc1C(F)(F)F (stereo not drawn) [Penthiopyrad, N-[2-(1,3-dimethylbutyl)-3-thienyl]-1-methyl-3-(trifluoromethyl)-1H-pyrazole-4-carboxamide]	–	–	–	–	62.6 bu/acre	6.7
